In data set [1] the test system is MDA-MB-231. Briefly: Cytotoxicity against human MDA-MB-231 cells assessed as inhibition of cell growth incubated for 96 hrs under hypoxic condition by MTT assay. In kind it is functional, cell-based. Conditions: MDA-MB-231, 96 h.
Data set [2] has as its system SiHa. Briefly: Inhibition of hypoxia-induced HIF-1alpha accumulation in human SiHa cells at 10 uM incubated for 24 hrs under hypoxic condition by Western blotting analysis. In kind it is functional, cell-based. (In western blotting, separated proteins are transferred to a membrane and probed.)
Data set [3] concerns SiHa. Briefly: Inhibition of VEGFR in human SiHa cells assessed as decrease in intracellular VEGFR protein expression at 10 uM incubated for 24 hrs under hypoxic condition by immunofluorescence staining based analysis relative to M2. Type of data set: cell-based.
Data set [4] deals with HUVEC. As to the kind of experiment: Antiangiogenic activity against human HUVEC cells assessed as inhibition of blood vessel formation at 10 uM incubated for 4 hrs under hypoxic condition by fluorescence microscopic analysis. In kind it is functional, cell-based.
Data set [5] deals with SiHa. Briefly: Cytotoxicity against human SiHa cells assessed as inhibition of cell growth incubated for 24 hrs under normoxic condition by MTT assay. In kind it is functional, cell-based. For orientation: Tetrazolium dyes change colour on reduction, which living cells bring about.
Data set [6] is described as follows: Inhibition of VEGFR mediated endocytosis in human SiHa cells incubated for 24 hrs under hypoxic condition by ELISA. Type of data set: cell-based. Background: ELISA stands for enzyme-linked immunosorbent assay.
For data set [7], the system named is HUVEC. Briefly: Inhibition of cell migration in human HUVEC cells at 10 uM incubated for 48 hrs under hypoxic condition by microscopic analysis relative to PAB. In kind it is functional.
For data set [8], the system named is HUVEC. As to the kind of experiment: Inhibition of cell migration in human HUVEC cells at 10 uM incubated for 48 hrs under hypoxic condition by microscopic analysis relative to M2. Type of data set: functional, cell-based.
Data set [9] concerns SiHa. Briefly: Inhibition of hypoxia-induced HIF-1beta accumulation in human SiHa cells at 10 uM incubated for 24 hrs under hypoxic condition by Western blotting analysis. In kind it is functional, cell-based.
The nature of data set [10]: Inhibition of PI3K/AKT/mTOR signalling pathway in human SiHa cells assessed as downregulation of JNK phosphorylation at 10 uM incubated for 24 hrs under hypoxic condition by Western blotting analysis. Type of data set: cell-based.
Data set [11] can be described thus: Toxicity in Balb/c mouse assessed as change in animal fur at 50 mg/kg,ip administration for 1 week. In kind it is organism-based. The note with it: in vivo, 168 h, time 1 weeks.
Data set [12] is described as follows: Toxicity in Balb/c mouse assessed as fatality at 50 mg/kg,ip administration for 1 week. The note with it: in vivo, 168 h, time 1 weeks. Type of data set: organism-based.
A short description of data set [13]: Toxicity in Balb/c mouse xenografted with human SiHa cells assessed as reduction in body weight at 30 mg/kg,ip administration measured after 22 days. Type of data set: organism-based. The note with it: in vivo, 528 h, time 22 day.
Data set [14] relates to SiHa. Briefly: Antitumor activity against human SiHa cells xenografted in Balb/c mouse assessed as reduction in tumor growth at 30 mg/kg,ip administration measured after 22 days. In kind it is functional, organism-based. Conditions: time 22.0 day.
For data set [15], the system named is SiHa. Briefly: Antitumor activity against human SiHa cells xenografted in Balb/c mouse assessed as reduction in tumor volume at 30 mg/kg,ip administration measured after 22 days. Type of data set: functional, organism-based. The note with it: time 22.0 day.
For data set [16], the system named is SiHa. Briefly: Antitumor activity against human SiHa cells xenografted in Balb/c mouse assessed as reduction in tumor weight at 30 mg/kg,ip administration measured after 22 days. Type of data set: functional, organism-based. Conditions: time 22.0 day.
The test system of data set [17] is SiHa. Briefly: Inhibition of hypoxia-induced HIF-1alpha accumulation in human SiHa cells at 0.3 to 10 uM incubated for 24 hrs under hypoxic condition by Western blotting analysis. In kind it is functional, cell-based. Conditions: dose 0.3-10 µM.
The subject of data set [18] is SiHa. Briefly: Inhibition of VEGFR in human SiHa cells assessed as decrease in intracellular VEGFR protein expression at 10 uM incubated for 24 hrs under hypoxic condition by immunofluorescence staining based analysis. Type of data set: cell-based.
Data set [19] concerns HUVEC. As to the kind of experiment: Inhibition of cell invasion in human HUVEC cells at 1 to 10 uM incubated for 48 hrs under hypoxic condition by crystal violet staining based microscopic analysis relative to PAB. Conditions: dose 1-10 µM. Type of data set: functional.
The subject of data set [20] is HUVEC. As to the kind of experiment: Antiangiogenic activity against human HUVEC cells assessed as inhibition of blood vessel formation at 1 to 10 uM incubated for 4 hrs under hypoxic condition by fluorescence microscopic analysis. Type of data set: functional, cell-based. Conditions: dose 1-10 µM.
In data set [21] the test system is SiHa. As to the kind of experiment: Inhibition of hypoxia-induced HIF-1beta accumulation in human SiHa cells at 0.3 to 10 uM incubated for 24 hrs under hypoxic condition by Western blotting analysis. Type of data set: functional, cell-based. Conditions: dose 0.3-10 µM.
Data set [22] concerns HUVEC. Briefly: Inhibition of cell migration in human HUVEC cells at 1 uM incubated for 48 hrs under hypoxic condition by microscopic analysis relative to PAB. In kind it is functional.
In data set [23] the test system is SiHa. As to the kind of experiment: Inhibition of VEGFR in human SiHa cells incubated for 24 hrs under hypoxic condition by ELISA. Type of data set: cell-based.
The test system of data set [24] is HUVEC. Briefly: Inhibition of cell migration in human HUVEC cells at 3 uM incubated for 48 hrs under hypoxic condition by microscopic analysis relative to PAB. Type of data set: functional.
The subject of data set [25] is HUVEC. Briefly: Inhibition of cell migration in human HUVEC cells at 1 to 10 uM under hypoxic condition by microscopic analysis. Type of data set: functional, cell-based. Conditions: dose 1-10 µM, TDE = time-dependent effect.
Data set [26] has as its system HUVEC. As to the kind of experiment: Inhibition of cell migration in human HUVEC cells incubated upto 48 hrs under hypoxic condition by microscopic analysis. In kind it is functional, cell-based.
For data set [27], the system named is SiHa. As to the kind of experiment: Inhibition of hypoxia-induced HIF-1alpha accumulation in human SiHa cells assessed as decrease in nuclear HIF-1alpha level at 10 uM incubated for 24 hrs under hypoxic condition by immunofluorescence staining based analysis. Type of data set: functional, cell-based.
Data set [28] deals with Hypoxia-inducible factor 1-alpha (Homo sapiens) (UniProt Q16665). Briefly: Inhibition of HIF-1alpha in human SiHa cells assessed as downregulation of HIF-1alpha protein expression incubated upto 60 mins under hypoxic condition by Western blotting analysis. Type of data set: cell-based.
Data set [29] shares this target. Briefly: Inhibition of HIF-1alpha in human SiHa cells assessed as downregulation of HIF-1alpha protein expression incubated upto 60 mins under hypoxic condition in presence of CHX by Western blotting analysis. In kind it is cell-based.
Data set [30] has the same target. Briefly: Inhibition of HIF-1alpha in human SiHa cells assessed as downregulation of HIF-1alpha protein expression incubated upto 60 mins under hypoxic condition in presence of MG-132 by Western blotting analysis. Type of data set: cell-based.
The subject of data set [31] is SiHa. Briefly: Inhibition of HIF-1beta in human SiHa cells assessed as downregulation of HIF-1beta protein expression incubated upto 60 mins under hypoxic condition in presence of MG-132 by Western blotting analysis. Type of data set: cell-based.
Data set [32] is described as follows: Inhibition of PI3K/AKT/mTOR signalling pathway in human SiHa cells assessed as downregulation of PI3K protein expression at 0.3 to 10 uM incubated for 24 hrs under hypoxic condition by Western blotting analysis. The note with it: dose 0.3-10 µM. Type of data set: cell-based.
Data set [33] can be described thus: Inhibition of PI3K/AKT/mTOR signalling pathway in human SiHa cells assessed as downregulation of AKT protein expression at 0.3 to 10 uM incubated for 24 hrs under hypoxic condition by Western blotting analysis. In kind it is cell-based. Conditions: dose 0.3-10 µM.
A short description of data set [34]: Inhibition of PI3K/AKT/mTOR signalling pathway in human SiHa cells assessed as downregulation of mTOR protein expression at 0.3 to 10 uM incubated for 24 hrs under hypoxic condition by Western blotting analysis. Type of data set: cell-based. Conditions: dose 0.3-10 µM.
Data set [35] is described as follows: Inhibition of PI3K/AKT/mTOR signalling pathway in human SiHa cells assessed as downregulation of ERK1/2 phosphorylation at 10 uM incubated for 24 hrs under hypoxic condition by Western blotting analysis. In kind it is cell-based.
A short description of data set [36]: Inhibition of PI3K/AKT/mTOR signalling pathway in human SiHa cells assessed as downregulation of p38 phosphorylation at 10 uM incubated for 24 hrs under hypoxic condition by Western blotting analysis. In kind it is cell-based.
Data set [37] can be described thus: Inhibition of PI3K/AKT/mTOR signalling pathway in human SiHa cells assessed as downregulation of ERK1/2 protein expression at 10 uM incubated for 24 hrs under hypoxic condition by Western blotting analysis. Type of data set: cell-based.
Data set [38] can be described thus: Inhibition of PI3K/AKT/mTOR signalling pathway in human SiHa cells assessed as downregulation of JNK protein expression at 10 uM incubated for 24 hrs under hypoxic condition by Western blotting analysis. In kind it is cell-based.
The nature of data set [39]: Inhibition of PI3K/AKT/mTOR signalling pathway in human SiHa cells assessed as downregulation of p38 protein expression at 10 uM incubated for 24 hrs under hypoxic condition by Western blotting analysis. Type of data set: cell-based.
Data set [40] relates to SiHa. As to the kind of experiment: Antitumor activity against human SiHa cells xenografted in Balb/c mouse assessed as reduction in HIF-1alpha expression in tumor at 30 mg/kg,ip administration measured after 22 days by immunohistochemical staining based analysis. In kind it is functional, organism-based. Conditions: time 22.0 day.
Data set [41] concerns SiHa. As to the kind of experiment: Antitumor activity against human SiHa cells xenografted in Balb/c mouse assessed as reduction in VEGF expression in tumor at 30 mg/kg,ip administration measured after 22 days by immunohistochemical staining based analysis. The note with it: time 22.0 day. Type of data set: functional, organism-based.
Data set [42] concerns MDA-MB-231. As to the kind of experiment: Cytotoxicity against human MDA-MB-231 cells assessed as fold increase in inhibition of cell growth incubated for 96 hrs under hypoxic condition by MTT assay relative to 4-hydroxycoumarin. Type of data set: functional.
The subject of data set [43] is MDA-MB-231. Briefly: Cytotoxicity against human MDA-MB-231 cells assessed as fold increase in inhibition of cell growth incubated for 96 hrs under hypoxic condition by MTT assay relative to doxorubicin. In kind it is functional.

The source made the active and inactive calls. No cut-off for these calls is given here.

Results on four compounds are retold here after ChEMBL document CHEMBL6071153, “Design, synthesis, and evaluation of antitumor activity in Pseudolaric acid B Azole derivatives: Novel and potent angiogenesis inhibitor via regulation of the PI3K/AKT and MAPK mediated HIF-1/VEGF signaling pathway” (Eur J Med Chem, 2024).

The IC50 is the concentration needed to halve the response being measured. The inhibition is the drop in the measured response relative to a control, in per cent.

Hypoxia-inducible factor 1-alpha (Homo sapiens), sequence (Q16665 whole entry, looked up): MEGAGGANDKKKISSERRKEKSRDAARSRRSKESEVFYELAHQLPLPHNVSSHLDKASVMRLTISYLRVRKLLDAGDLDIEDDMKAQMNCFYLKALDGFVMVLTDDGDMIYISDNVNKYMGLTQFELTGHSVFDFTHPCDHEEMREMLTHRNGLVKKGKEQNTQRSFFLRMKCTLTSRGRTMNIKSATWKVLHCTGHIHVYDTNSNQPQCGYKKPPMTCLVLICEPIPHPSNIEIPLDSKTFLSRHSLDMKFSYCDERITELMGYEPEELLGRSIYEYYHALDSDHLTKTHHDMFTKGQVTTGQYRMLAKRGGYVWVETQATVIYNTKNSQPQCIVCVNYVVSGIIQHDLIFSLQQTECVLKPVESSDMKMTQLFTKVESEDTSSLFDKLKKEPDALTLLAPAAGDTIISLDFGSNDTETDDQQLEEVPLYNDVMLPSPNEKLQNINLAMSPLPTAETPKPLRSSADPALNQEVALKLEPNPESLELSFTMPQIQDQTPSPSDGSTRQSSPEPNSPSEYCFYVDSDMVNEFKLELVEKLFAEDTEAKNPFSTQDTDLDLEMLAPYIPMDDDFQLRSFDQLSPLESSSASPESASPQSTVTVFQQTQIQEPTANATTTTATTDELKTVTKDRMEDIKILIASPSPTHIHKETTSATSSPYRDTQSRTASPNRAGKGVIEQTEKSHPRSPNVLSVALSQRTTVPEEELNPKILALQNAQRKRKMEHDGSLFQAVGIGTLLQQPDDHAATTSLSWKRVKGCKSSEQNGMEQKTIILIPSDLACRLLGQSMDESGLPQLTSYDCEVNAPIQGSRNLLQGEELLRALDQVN

For `O=c1cc(O)c2ccccc2o1` [4-HYDROXYCOUMARINS], the IC50 in the data set on MDA-MB-231 [1] was > 100 µM.

Regarding `COC(=O)C1=CC[C@@]23CC[C@@H]([C@@](C)(/C=C/C=C(\C)C(=O)O)OC2=O)[C@@]3(OC(C)=O)CC1` [PSEUDOLARIC ACID B], the inhibition result in the data set on SiHa [2], with SiHa [3], in the data set on HUVEC [8] and in the data set on SiHa [9] was “Active” throughout. Further, the outcome with HUVEC [4], in the data set with SiHa [14], with SiHa [15] and with SiHa [16] was Active. Also, the IC50 is > 30 µM in the data set on SiHa [5] and 5.54 µM in data set [6]. Besides, in the data set on HUVEC [7], the inhibition at 10 µM came out at 68.5%. In data set [10], the inhibition entry is “inactive”. Besides, the Activity result in data set [11], in data set [12] and in data set [13] was “Non-Toxic” in each case.

For `COC(=O)C1=CC[C@@]23CC[C@@H]([C@@](C)(/C=C/C=C(\C)C(=O)OCC(=O)NCc4cn(-c5ccc(Cl)cc5)nn4)OC2=O)[C@@]3(OC(C)=O)CC1`, the inhibition entry (in the data set on SiHa [17]; with SiHa [18]; in the data set on HUVEC [19]; with SiHa [21]; in the data set on SiHa [27]; in data set [28]) was “Active” each time. In addition, the inhibition result in data set [30], in data set [32], in [33], in data set [34], in data set [35] and in data set [10] was “Active” throughout. In addition, the inhibition entry in data set [36] was “Active”. In addition, the outcome in the data set with HUVEC [20], in the data set with SiHa [14], in the data set on SiHa [15], with SiHa [16], in the data set on SiHa [40] and with SiHa [41] was Active. This compound also displayed an inhibition at 1 µM in the data set on HUVEC [22] of 35.6%. The figures for the IC50 (with SiHa [5]; in data set [6]) were > 30 µM and 0.68 µM, respectively. Besides, the inhibition entry is “Dose-Dependent Effect” in the data set with SiHa [23], “Tde” in the data set with HUVEC [25] and “Dose-Dependent Effect” in the data set with HUVEC [26]. Moreover, the inhibition at 3 µM with HUVEC [24] amounted to 66.1%. In addition, the inhibition at 10 µM with HUVEC [7] worked out at 88.8%. Further, the inhibition entry (in data set [29]; in the data set on SiHa [31]; in data set [37]; in data set [38]; in data set [39]) was “inactive” throughout. Besides, the Activity entry in data set [11], in data set [12] and in [13] was “Non-Toxic” throughout.

Take `COc1ccc(NC(=O)c2ccc(-n3cc(COc4cc(=O)oc5ccccc45)nn3)cc2)cc1OC`: the “fold change (FC)” value amounted to 5000 with MDA-MB-231 [42] and 20 in the data set with MDA-MB-231 [43].
